Where two headings read alike, the source gives them in different places.
Tests used:
in vivo = conditions: mouse, po, p.o. in mice
Text: In general, the compounds related to this invention have a potent uriosuric activiity and some of them are considered promising for clinical use. The toxicity of these compounds is much lower than that of the typical uricosuric agent: benzbromarone.

phenol red retention = experiment: Uricosuric activity by phenol red method in rats; type: in vivo; conditions: p.o. 100 mg/kg
Method: (§1) Blood samples were collected from the retro-orbital plexus into heparinized capillary tubes 60 minutes after the phenol red injection. The retention of phenol red in circulation was determined according to the method described in J. Med. Pharmaceu.
The same test of uricosuric activity was applied to rats.

[1] = system: phenol red retention in circulation; experiment: Uricosuric activity by phenol red retention test in mice; type: in vivo, male mice; conditions: Mus musculus, 1 h
Method: as §1
Benzobromarone was administered subcutaneously to mice in an amount of 200 mg./kg. as a control or standard.

[2] = po, mice, p.o. 200 mg/kg, 30 min before 75 mg/kg phenol red, blood 60 min after phenol red, read-out: phenol red retention, percentage by comparison with the control group, P.O. (200 mg/kg)
[3] = sc, mice, s.c. 200 mg/kg, 30 min before 75 mg/kg phenol red, blood 60 min after phenol red, read-out: phenol red retention, percentage by comparison with the control group, S.C. (200 mg/kg)

SMILES | LD50 (in vivo) [mg/kg] | Phenol Red Retention % in Rats 100 mg/kg (p.o.) (phenol red retention) [%] | response vs control in vivo at 200 mg/kg ([1]; sc, read-out: phenol red retention, percentage by comparison with the control group, S.C. (200 mg/kg)) [%] | response vs control in vivo at 200 mg/kg [1, 2] [%] | response vs control in vivo at 200 mg/kg [1, 3] [%]
CCc1oc2ccccc2c1C(=O)c1cc(Br)c(O)c(Br)c1 [Benzbromarone, benzbromarone, reference compound] | 361 | 163.9 ± 25.0 | 184 |  | 
CCc1oc2ccccc2c1C(=O)c1cc(C)c(OCC(=O)O)cc1C [Compound 39] |  | 175.7 ± 21.6 |  | 410 ± 28.6 | 
CCc1oc2ccccc2c1C(=O)c1ccc(OCC(=O)O)c(C)c1 [Compound 25, 2-methyl-4-(2-ethyl-3-benzofuroyl)phenoxyacetic acid] |  | 208.1 ± 27.0 |  | 200 ± 25 | 189 ± 27.8
CCc1oc2ccccc2c1C(=O)c1ccc(OCC(=O)O)cc1 [Compound 3, 4-(2-ethyl-3-benzofuroyl)phenoxyacetic acid] | 2110 | 194.6 ± 29.7 |  | 175 ± 15.5 | 169 ± 18.1

Reference: patent publication US4797415A, “Benzofuran derivatives and use thereof for treating hyperuricemia” (Kotobuki Seiyaku Company Limited, priority 1982, dated 1989)
